Measurements published in US9840513B2 (AbbVie S.à.r.l., priority 2015, dated 2017).

Target: T1, F508delCFTR cell surface expression in CFBE41o-F508delCFTR-HRP cells (Homo sapiens, UniProt P13569, DEL508-508)
T1 construct: fused on or other part: Horseradish peroxidase (HRP) reporter inserted in the fourth exofacial (extracellular) loop of CFTR; expression is doxycycline-inducible
Experiment: Cell Surface Expression-Horse Radish Peroxidase (CSE-HRP) Assay
Assay type: cell-based
Settings: for EC50: CFBE41o-F508delCFTR-HRP cells, 18-24 hours at 33° C., 8-point curve, highest concentration 20 μM; for Maximum % activity (%): maximum at any tested concentration, normalized to on-plate positive control (3 μM)
Procedure, shortened: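 Correctors incubated 18-24 h at 33 °C on doxycycline-induced (0.5 μg/mL, 72 h) CFBE41o-F508delCFTR-HRP cells, 3-fold series from 20 μM. After DPBS washes, luminol luminescence read; activity expressed relative to DMSO and a 3 μM positive control, EC50 fitted from triplicate plates.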

T1 sequence (P13569 with tags, fused parts or gaps DEL508-508 limits assumed): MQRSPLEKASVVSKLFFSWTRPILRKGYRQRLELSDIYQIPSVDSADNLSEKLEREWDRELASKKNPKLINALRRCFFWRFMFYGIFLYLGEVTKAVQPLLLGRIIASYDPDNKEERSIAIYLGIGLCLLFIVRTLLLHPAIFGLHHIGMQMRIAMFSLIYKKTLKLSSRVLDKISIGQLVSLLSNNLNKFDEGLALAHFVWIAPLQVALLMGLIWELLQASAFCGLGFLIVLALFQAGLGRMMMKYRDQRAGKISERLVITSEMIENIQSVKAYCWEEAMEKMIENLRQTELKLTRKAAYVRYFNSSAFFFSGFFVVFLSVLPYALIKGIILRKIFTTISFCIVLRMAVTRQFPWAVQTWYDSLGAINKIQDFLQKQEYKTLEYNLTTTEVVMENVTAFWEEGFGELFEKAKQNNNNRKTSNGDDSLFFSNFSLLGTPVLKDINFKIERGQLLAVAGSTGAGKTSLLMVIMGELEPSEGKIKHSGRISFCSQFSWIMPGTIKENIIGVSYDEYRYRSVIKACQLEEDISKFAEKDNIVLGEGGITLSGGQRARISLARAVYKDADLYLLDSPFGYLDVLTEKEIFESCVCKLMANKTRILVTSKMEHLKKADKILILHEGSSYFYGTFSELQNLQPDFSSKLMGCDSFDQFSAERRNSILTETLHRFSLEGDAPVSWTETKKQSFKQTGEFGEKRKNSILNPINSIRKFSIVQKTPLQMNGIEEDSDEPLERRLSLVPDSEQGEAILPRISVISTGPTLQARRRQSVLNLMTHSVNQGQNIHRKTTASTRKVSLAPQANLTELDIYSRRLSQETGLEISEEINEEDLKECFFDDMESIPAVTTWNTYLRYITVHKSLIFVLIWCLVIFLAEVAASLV
T1 sequence (P13569 919-1480 limits assumed, stated change not applied): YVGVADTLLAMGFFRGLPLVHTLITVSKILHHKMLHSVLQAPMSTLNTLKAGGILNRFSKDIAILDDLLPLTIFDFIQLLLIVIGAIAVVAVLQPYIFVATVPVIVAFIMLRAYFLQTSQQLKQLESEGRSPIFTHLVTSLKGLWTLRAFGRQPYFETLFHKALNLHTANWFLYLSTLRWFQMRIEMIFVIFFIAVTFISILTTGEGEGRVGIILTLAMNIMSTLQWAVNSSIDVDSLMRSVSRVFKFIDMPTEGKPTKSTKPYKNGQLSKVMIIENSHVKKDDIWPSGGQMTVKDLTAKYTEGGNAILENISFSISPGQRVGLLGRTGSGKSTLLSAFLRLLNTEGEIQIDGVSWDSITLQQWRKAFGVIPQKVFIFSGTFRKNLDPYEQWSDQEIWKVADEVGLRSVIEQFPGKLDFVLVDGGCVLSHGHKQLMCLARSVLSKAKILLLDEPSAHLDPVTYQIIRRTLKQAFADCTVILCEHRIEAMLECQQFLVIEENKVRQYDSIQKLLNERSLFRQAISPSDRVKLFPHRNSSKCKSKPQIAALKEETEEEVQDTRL

EC50 | Maximum % activity (%) | SMILES
1730 nM | 94% | Cc1ccc(NC(=O)C2(C)COc3cc4c(cc32)OC(F)(F)O4)nc1-c1cccc(C(=O)N(C)C)c1 (centres unmarked) [Example 75, N-{6-[3-(dimethylcarbamoyl)phenyl]-5-methylpyridin-2-yl}-2,2-difluoro-7-methyl-6,7-dihydro-2H-furo[2,3-f][1,3]benzodioxole-7-carboxamide]
720 nM | 111% | CNC(=O)c1cccc(-c2nc(NC(=O)C3(C)COc4cc5c(cc43)OC(F)(F)O5)ccc2C)c1 (centres unmarked) [Example 76, 2,2-difluoro-7-methyl-N-{5-methyl-6-[3-(methylcarbamoyl)phenyl]pyridin-2-yl}-6,7-dihydro-2H-furo[2,3-f][1,3]benzodioxole-7-carboxamide]
6630 nM | 116% | Cc1ccc(NC(=O)[C@@]2(C)COc3cc4c(cc32)OC(F)(F)O4)nc1Cl [Example 77, (7R)—N-(6-chloro-5-methylpyridin-2-yl)-2,2-difluoro-7-methyl-6,7-dihydro-2H-furo[2,3-f][1,3]benzodioxole-7-carboxamide]
570 nM | 95% | Cc1ccc(NC(=O)[C@@]2(C)COc3cc4c(cc32)OC(F)(F)O4)nc1-c1cccc(C#N)c1 [Example 78, (7R)—N-[6-(3-cyanophenyl)-5-methylpyridin-2-yl]-2,2-difluoro-7-methyl-6,7-dihydro-2H-furo[2,3-f][1,3]benzodioxole-7-carboxamide]
1180 nM | 151% | COC(=O)c1ccc(-c2cccc(NC(=O)[C@@]3(C)COc4cc5c(cc43)OC(F)(F)O5)n2)cc1 [Example 79, methyl 4-(6-{[(7R)-2,2-difluoro-7-methyl-6,7-dihydro-2H-furo[2,3-f][1,3]benzodioxole-7-carbonyl]amino}pyridin-2-yl)benzoate]
4750 nM | 147% | C[C@]1(C(=O)Nc2ccc(N3CCCC3)cn2)COc2cc3c(cc21)OC(F)(F)O3 [Example 80, (7R)-2,2-difluoro-7-methyl-N-[5-(pyrrolidin-1-yl)pyridin-2-yl]-6,7-dihydro-2H-furo[2,3-f][1,3]benzodioxole-7-carboxamide]
1400 nM | 200% | C[C@]1(C(=O)Nc2cccc(-c3ccc(C(=O)O)cc3)n2)COc2cc3c(cc21)OC(F)(F)O3 [Example 81, 4-(6-{[(7R)-2,2-difluoro-7-methyl-6,7-dihydro-2H-furo[2,3-f][1,3]benzodioxole-7-carbonyl]amino}pyridin-2-yl)benzoic acid]
3160 nM | 116% | CCOC(=O)c1csc(-c2cccc(NC(=O)[C@@]3(C)COc4cc5c(cc43)OC(F)(F)O5)n2)c1 [Example 82, ethyl 5-(6-{[(7R)-2,2-difluoro-7-methyl-6,7-dihydro-2H-furo[2,3-f][1,3]benzodioxole-7-carbonyl]amino}pyridin-2-yl)thiophene-3-carboxylate]
7510 nM | 46% | Cc1ccc(-c2cccc(C(=O)O)c2)nc1NC(=O)[C@@]1(C)COc2cc3c(cc21)OC(F)(F)O3 [Example 84, 3-(6-{[(7R)-2,2-difluoro-7-methyl-6,7-dihydro-2H-furo[2,3-f][1,3]benzodioxole-7-carbonyl]amino}-5-methylpyridin-2-yl)benzoic acid]
6690 nM | 90% | C[C@]1(C(=O)Nc2cccc(F)n2)COc2cc3c(cc21)OC(F)(F)O3 [Example 85, (7R)-2,2-difluoro-N-(6-fluoropyridin-2-yl)-7-methyl-6,7-dihydro-2H-furo[2,3-f][1,3]benzodioxole-7-carboxamide]
2840 nM | 112% | C[C@]1(C(=O)Nc2cccc(-c3cc(C(=O)O)cs3)n2)COc2cc3c(cc21)OC(F)(F)O3 [Example 86, 5-(6-{[(7R)-2,2-difluoro-7-methyl-6,7-dihydro-2H-furo[2,3-f][1,3]benzodioxole-7-carbonyl]amino}pyridin-2-yl)thiophene-3-carboxylic acid]
1860 nM | 100% | C[C@]1(C(=O)Nc2cccc(N3CCOC(CO)C3)n2)COc2cc3c(cc21)OC(F)(F)O3 (stereo partly drawn) [Example 87, (7R)-2,2-difluoro-N-{6-[2-(hydroxymethyl)morpholin-4-yl]pyridin-2-yl}-7-methyl-6,7-dihydro-2H-furo[2,3-f][1,3]benzodioxole-7-carboxamide]
730 nM | 113% | C[C@]1(C(=O)Nc2cccc(N3CC[C@H](O)C3)n2)COc2cc3c(cc21)OC(F)(F)O3 [Example 88, (7R)-2,2-difluoro-N-{6-[(3S)-3-hydroxypyrrolidin-1-yl]pyridin-2-yl}-7-methyl-6,7-dihydro-2H-furo[2,3-f][1,3]benzodioxole-7-carboxamide]
18 nM | 116% | COC(=O)c1ccc([C@H]2C[C@@H](NC(=O)[C@@]3(C)COc4cc5c(cc43)OC(F)(F)O5)c3ccc(OC)cc3O2)nc1 [Example 89E, methyl 6-[(2R,4R)-4-{[(7R)-2,2-difluoro-7-methyl-6,7-dihydro-2H-furo[2,3-f][1,3]benzodioxole-7-carbonyl]amino}-7-methoxy-3,4-dihydro-2H-1-benzopyran-2-yl]pyridine-3-carboxylate]
210 nM | 116% | C[C@]1(C(=O)Nc2cccc(N3CC[C@@H](O)C3)n2)COc2cc3c(cc21)OC(F)(F)O3 [Example 91, (7R)-2,2-difluoro-N-{6-[(3R)-3-hydroxypyrrolidin-1-yl]pyridin-2-yl}-7-methyl-6,7-dihydro-2H-furo[2,3-f][1,3]benzodioxole-7-carboxamide]
1530 nM | 89% | C[C@]1(C(=O)Nc2cccc(NC[C@H](O)CO)n2)COc2cc3c(cc21)OC(F)(F)O3 [Example 93, (7R)—N-(6-{[(2S)-2,3-dihydroxypropyl]amino}pyridin-2-yl)-2,2-difluoro-7-methyl-6,7-dihydro-2H-furo[2,3-f][1,3]benzodioxole-7-carboxamide]
> 20000 nM | 8% | C[C@]1(C(=O)Nc2cnc(N3CCC(C(=O)O)C3)cn2)COc2cc3c(cc21)OC(F)(F)O3 (stereo partly drawn) [Example 94, 1-(5-{[(7R)-2,2-difluoro-7-methyl-6,7-dihydro-2H-furo[2,3-f][1,3]benzodioxole-7-carbonyl]amino}pyrazin-2-yl)pyrrolidine-3-carboxylic acid]
1310 nM | 139% | CC1(C(=O)O)CN(c2cccc(NC(=O)[C@@]3(C)COc4cc5c(cc43)OC(F)(F)O5)n2)C1 [Example 96, 1-(6-{[(7R)-2,2-difluoro-7-methyl-6,7-dihydro-2H-furo[2,3-f][1,3]benzodioxole-7-carbonyl]amino}pyridin-2-yl)-3-methylazetidine-3-carboxylic acid]
480 nM | 148% | C[C@]1(C(=O)Nc2cc(Br)cn(-c3ccc(C(=O)O)cc3)c2=O)COc2cc3c(cc21)OC(F)(F)O3 [Example 97, 4-[5-bromo-3-{[(7R)-2,2-difluoro-7-methyl-6,7-dihydro-2H-furo[2,3-f][1,3]benzodioxole-7-carbonyl]amino}-2-oxopyridin-1(2H)-yl]benzoic acid]
1140 nM | 143% | C[C@]1(C(=O)Nc2cc(Br)cn(C[C@@H](O)CO)c2=O)COc2cc3c(cc21)OC(F)(F)O3 [Example 98, (7R)—N-{5-bromo-1-[(2R)-2,3-dihydroxypropyl]-2-oxo-1,2-dihydropyridin-3-yl}-2,2-difluoro-7-methyl-6,7-dihydro-2H-furo[2,3-f][1,3]benzodioxole-7-carboxamide]
230 nM | 71% | C[C@]1(C(=O)Nc2cc(-c3ccccc3)cn(-c3ccc(C(=O)O)cc3)c2=O)COc2cc3c(cc21)OC(F)(F)O3 [Example 99, 4-[3-{[(7R)-2,2-difluoro-7-methyl-6,7-dihydro-2H-furo[2,3-f][1,3]benzodioxole-7-carbonyl]amino}-2-oxo-5-phenylpyridin-1(2H)-yl]benzoic acid]
450 nM | 85% | C[C@]1(C(=O)Nc2cc(-c3ccccc3)cn(C[C@@H](O)CO)c2=O)COc2cc3c(cc21)OC(F)(F)O3 [Example 100, (7R)—N-{1-[(2R)-2,3-dihydroxypropyl]-2-oxo-5-phenyl-1,2-dihydropyridin-3-yl}-2,2-difluoro-7-methyl-6,7-dihydro-2H-furo[2,3-f][1,3]benzodioxole-7-carboxamide]
870 nM | 116% | CC1(C)CCN(c2cccc(NC(=O)[C@@]3(C)COc4cc5c(cc43)OC(F)(F)O5)n2)C1 [Example 101, (7R)—N-[6-(3,3-dimethylpyrrolidin-1-yl)pyridin-2-yl]-2,2-difluoro-7-methyl-6,7-dihydro-2H-furo[2,3-f][1,3]benzodioxole-7-carboxamide]
8290 nM | 61% | C[C@]1(C(=O)Nc2cnc(N3CCC[C@H]3C(=O)O)cn2)COc2cc3c(cc21)OC(F)(F)O3 [Example 102, 1-(5-{[(7R)-2,2-difluoro-7-methyl-6,7-dihydro-2H-furo[2,3-f][1,3]benzodioxole-7-carbonyl]amino}pyrazin-2-yl)proline]
1720 nM | 170% | Cc1cc(NC(=O)[C@@]2(C)COc3cc4c(cc32)OC(F)(F)O4)nc(-c2cccc(C(=O)O)c2)c1 [Example 103, 3-(6-{[(7R)-2,2-difluoro-7-methyl-6,7-dihydro-2H-furo[2,3-f][1,3]benzodioxole-7-carbonyl]amino}-4-methylpyridin-2-yl)benzoic acid]
